Read-outs that look alike come from different tables or passages of the source.

Assay [1] deals with E. coli CSH2 (RK1). The assay is described as follows: microbe, parasite or virus in culture. Type of assay: cell-based. The settings on record: Escherichia coli, 16 h, read-out: Minimum Inhibitory Concentration (MIC), *E. coli CSH2 (RK1), lactamase-producing strain; 10^6 CFU/ml. The method in brief:
(§1)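 Each organism, pre-grown overnight in Mueller Hinton broth, is inoculated at 10^6 CFU/ml onto Mueller Hinton agar series with increasing compound concentration; growth inhibition is scored after 16 h, 37° C., giving MIC (μg/ml).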

The subject of assay [2] is E. coli CSH(RE45). Put plainly: microbe, parasite or virus in culture. Type of assay: cell-based. The settings on record: Escherichia coli, 16 h, read-out: Minimum Inhibitory Concentration (MIC), *E. coli CSH(RE45), lactamase-producing strain; 10^6 CFU/ml. In short, it runs like this: as §1
For assay [3], the system named is Ps. cepacia 23. The assay is described as follows: in vitro antibacterial activity, agar plate dilution method (MIC). The format is cell-based, Pseudomonas cepacia. Particulars: read-out: Minimum Inhibitory Concentration (MIC). In short, it runs like this:
as §1

The subject of assay [4] is E. cloacae Nek 39. The assay is described as above. The format is cell-based. The settings on record: Enterobacter cloacae, NEK39, 16 h, read-out: Minimum Inhibitory Concentration (MIC), *E. cloacae Nek 39, lactamase-producing strain; 10^6 CFU/ml. In short, it runs like this: as §1
In assay [5] the test system is K. pneumoniae No. 42. The description is as above. The settings on record: Klebsiella pneumoniae, NO.42, 16 h, read-out: Minimum Inhibitory Concentration (MIC), *K. pneumoniae No. 42, lactamase-producing strain; 10^6 CFU/ml. Type of assay: cell-based. The method in brief: as §1
Assay [6] relates to P. vulgaris HX-19. The description is as above. Type of assay: cell-based. The settings on record: Proteus vulgaris, HX19, 16 h, P. vulgaris HX-19; 10^6 CFU/ml; read-out: Minimum Inhibitory Concentration (MIC). In short, it runs like this:
as §1

Assay [7] deals with E. coli NIHJ JC2. The description is as above. Type of assay: cell-based. Particulars: Escherichia coli, NIHJJC2, 16 h, read-out: Minimum Inhibitory Concentration (MIC), E. coli NIHJ JC2, 10^6 CFU/ml, 37° C. The method in brief:
as §1

The subject of assay [8] is S. marcescens No. 16-2. The assay is described as above. Type of assay: cell-based. Particulars: Serratia marcescens, NO.162, 16 h. The method in brief:
as §1

The test system of assay [9] is S. marcescens IAM 1184. The assay is described as above. The format is cell-based. The settings on record: Serratia marcescens, IAM1184, 16 h, read-out: Minimum Inhibitory Concentration (MIC). The method in brief:
as §1

Assay [10] concerns E. coli GN5482. Described as above. Type of assay: cell-based. The settings on record: Escherichia coli, GN5482, 16 h. In short, it runs like this:
as §1

For assay [11], the system named is P. vulgaris No. 33. The assay is described as above. The format is cell-based. Particulars: Proteus vulgaris, NO.33, 16 h, read-out: Minimum Inhibitory Concentration (MIC), *P. vulgaris No. 33, lactamase-producing strain; 10^6 CFU/ml. In short, it runs like this:
as §1

In assay [12] the test system is E. cloacae 963. The assay is described as above. The format is cell-based. Particulars: 10^6 CFU/ml. In short, it runs like this: as §1
The test system of assay [13] is S. aureus 209P NIHJ-JC1. Described as above. Type of assay: cell-based. The settings on record: Staphylococcus aureus, 16 h. The method in brief: as §1
The subject of assay [14] is K. oxytoca GN10650. Described as above. Particulars: Klebsiella oxytoca, GN10650, 16 h, read-out: Minimum Inhibitory Concentration (MIC), *K. oxytoca GN10650, lactamase-producing strain; 10^6 CFU/ml. The format is cell-based. In short, it runs like this: as §1
Assay [15] concerns K. pneumoniae PCI-602. The assay is described as above. Particulars: Klebsiella pneumoniae, PCI602, 16 h, read-out: Minimum Inhibitory Concentration (MIC), K. pneumoniae PCI-602; 10^6 CFU/ml. The format is cell-based. The method in brief: as §1
Assay [16] concerns M. morganii GN5407. The assay is described as above. Type of assay: cell-based. Particulars: Morganella morganii, GN5407, 16 h, read-out: Minimum Inhibitory Concentration (MIC), *M. morganii GN5407, lactamase-producing strain; 10^6 CFU/ml. In short, it runs like this:
as §1

Assay [17] deals with A. calcoaceticus No. 4. The description is as above. The settings on record: Acinetobacter calcoaceticus, NO.4, 16 h, 10^6 CFU/ml. The format is cell-based, Acinetobacter calcoaceticus. The method in brief:
as §1

For assay [18], the system named is Ps. aeruginosa AK 109. The description is as above. The format is cell-based, Pseudomonas aeruginosa. Particulars: Pseudomonas aeruginosa, AK109, 16 h, read-out: Minimum Inhibitory Concentration (MIC). In short, it runs like this:
as §1

The test system of assay [19] is Ps. aeruginosa AKR17. The assay is described as above. The format is cell-based, Pseudomonas aeruginosa. Particulars: Pseudomonas aeruginosa, read-out: Minimum Inhibitory Concentration (MIC). The method in brief: as §1
The subject of assay [20] is Ps. aeruginosa IF03445. Described as above. The format is cell-based, Pseudomonas aeruginosa. The settings on record: Pseudomonas aeruginosa, 10^6 CFU/ml. In short, it runs like this:
as §1

Setting [21] is: Burkholderia cepacia, 16 h, Ps. cepacia 23, 10^6 CFU/ml.
Where [22] appears, read: read-out: Minimum Inhibitory Concentration (MIC), *S. marcescens No. 16-2, lactamase-producing strain, 10^6 CFU/ml.
The mark [23] stands for this setting: read-out: Minimum Inhibitory Concentration (MIC).
The mark [24] stands for this setting: Enterobacter cloacae, 963, 16 h, read-out: Minimum Inhibitory Concentration (MIC), E. cloacae 963.
[25] abbreviates: Ps. aeruginosa AK 109, 10^6 CFU/ml.
The mark [26] stands for this setting: 16 h, Ps. aeruginosa AKR17, 10^6 CFU/ml.
Where [27] appears, read: IF03445, 16 h, read-out: Minimum Inhibitory Concentration (MIC), Ps. aeruginosa IF03445.
[28] abbreviates: S. aureus 209P NIHJ-JC1, 10^6 CFU/ml, 37° C., 16 hours, read-out: Minimum Inhibitory Concentration (MIC).
Setting [29] is: A. calcoaceticus No. 4, read-out: Minimum Inhibitory Concentration (MIC).

In the case of `C#CCO/N=C(\C(=O)N[C@@H]1C(=O)N2C(C(=O)O)=C(CSc3nnc(-c4ccc(O)c(O)c4)o3)CS[C@H]12)c1csc(N)n1` [compound 9, sodium 7β-[2-(2-aminothiazol-4-yl)-2-(2-propynyloxyimino)acetamido]-3-[5-(3,4-dihydroxyphenyl)-1,3,4-oxadiazol-2-yl]thiomethyl-3-cephem-4carboxylate], the MIC in assay [1] is 0.0125 µg/mL; in assay [2], 0.0125 µg/mL; in assay [3] (setting [21]), 0.05 µg/mL; in assay [4], 0.1 µg/mL; in assay [5], 0.025 µg/mL; in assay [6], < 0.006 µg/mL. For the same compound, the MIC in [7] was determined as 0.1 µg/mL; in [8] (setting [22]) it was 6.25 µg/mL; in assay [9], 0.0125 µg/mL; in assay [10] (setting [23]), 0.39 µg/mL; in assay [11], 0.025 µg/mL; in assay [12] (setting [24]), 0.0125 µg/mL. Moreover, the MIC was 0.78 µg/mL in assay [13] (read-out: Minimum Inhibitory Concentration (MIC), S. aureus 209P NIHJ-JC1, 10^6 CFU/ml, 37° C., 16 hours); 6.25 µg/mL in [14]; 0.0125 µg/mL in assay [15]; 0.0125 µg/mL in assay [16]; 0.1 µg/mL in assay [17] (read-out: Minimum Inhibitory Concentration (MIC), A. calcoaceticus No. 4); 0.2 µg/mL in assay [18] (setting [25]). The results for the MIC in assay [19] (setting [26]) and in [20] (setting [27]) were > 100 µg/mL and 1.56 µg/mL, respectively.

Regarding `CO/N=C(\C(=O)N[C@@H]1C(=O)N2C(C(=O)O)=C(CSc3nc(-c4ccccc4)cs3)CS[C@H]12)c1csc(N)n1` [compound 9, sodium 7μ-[2-(2-aminothiazol-4-yl)-2-methoxyiminoacetamido]-3-(4-phenylthiazol-2-yl)-thiomethyl-3-cephem-4-carboxylate, reference compound], the MIC is 0.39 µg/mL in assay [1]; 0.78 µg/mL in [2]; 3.12 µg/mL in [3] (Burkholderia cepacia, 23, 16 h); 3.12 µg/mL in [4]; 1.56 µg/mL in assay [5]; < 0.006 µg/mL in assay [6]. The MIC is 0.78 µg/mL in assay [7]; 3.12 µg/mL in assay [8] (setting [23]); 0.39 µg/mL in assay [9]; 0.39 µg/mL in [10] (setting [23]); 0.78 µg/mL in assay [11]; 1.56 µg/mL in [12] (setting [24]). Moreover, the MIC in [13] (setting [28]) is 0.1 µg/mL; in [14] it was 3.12 µg/mL; in assay [15] it was < 0.006 µg/mL; in assay [16], 0.78 µg/mL; in [17] (setting [29]) it was 25 µg/mL; in assay [18] (setting [25]) it was 25 µg/mL. For the same compound, the MIC was > 100 µg/mL in [19] (setting [26]) and 25 µg/mL in assay [20] (16 h, Ps. aeruginosa IF03445, read-out: Minimum Inhibitory Concentration (MIC)).

In the case of `Nc1nc(/C(=N/OCC(=O)O)C(=O)N[C@@H]2C(=O)N3C(C(=O)O)=C(CSc4nnc(-c5ccc(O)c(O)c5)o4)CS[C@H]23)cs1` [compound 10, disodium 78-[2-(2-aminothiazol-4-yl)-2-carboxylatemethoxyiminoacetamido]-3-[5-(3,4-dihydroxyphenyl)-1,3,4-oxadiazol-2-yl]thiomethvl-3-cephem-4-carboxylate], the MIC in assay [1] is < 0.006 µg/mL; in [2] it was 0.0125 µg/mL; in assay [3] (setting [21]), < 0.006 µg/mL; in [4], 0.05 µg/mL; in assay [5], 0.025 µg/mL; in assay [6], < 0.006 µg/mL. Also, the MIC worked out at 0.05 µg/mL in [7]; 0.39 µg/mL in [8] (setting [23]); 0.0125 µg/mL in assay [9]; 0.39 µg/mL in assay [10] (setting [23]); 0.025 µg/mL in [11]; 0.025 µg/mL in assay [12] (setting [24]). The MIC in assay [13] (setting [23]) is 12.5 µg/mL; in assay [14], 0.1 µg/mL; in assay [15], < 0.006 µg/mL; in assay [16], 0.025 µg/mL; in [17] (setting [29]), 0.05 µg/mL; in assay [18] (setting [25]), 0.2 µg/mL. In addition, the MIC is 12.5 µg/mL in [19] (AKR17, 16 h) and 0.39 µg/mL in assay [20] (setting [27]).

Consider `CO/N=C(\C(=O)N[C@@H]1C(=O)N2C(C(=O)O)=C(CSc3nc(-c4ccc(O)cc4)cs3)CS[C@H]12)c1csc(N)n1` [compound 10, sodium 7β-[2-(2-aminothiazol-4-yl)-2-methoxyiminoacetamido]-3-[4-(4-hydroxyphenyl)thiazol-2-yl]thiomethyl-3-cephem-4-carboxylate, reference compound], for which the MIC in assay [1] is 0.39 µg/mL; in [2] it was 0.78 µg/mL; in [3] (Burkholderia cepacia, 23, 16 h) it was 3.12 µg/mL; in [4], 3.12 µg/mL; in [5] it was 1.56 µg/mL; in [6], < 0.006 µg/mL. Besides, the MIC in [7] worked out at 0.78 µg/mL; in [8] (setting [23]) it was 3.12 µg/mL; in assay [9] it was 0.78 µg/mL; in [10] (setting [23]) it was 0.39 µg/mL; in assay [11], 0.78 µg/mL; in assay [12] (setting [24]), 1.56 µg/mL. Also, the MIC is 0.2 µg/mL in assay [13] (setting [28]); 3.12 µg/mL in assay [14]; < 0.006 µg/mL in [15]; 0.78 µg/mL in assay [16]; 50 µg/mL in assay [17] (setting [29]); 12.5 µg/mL in assay [18]. Further, the results for the MIC in assay [19] (setting [26]) and in assay [20] (setting [27]) were > 100 µg/mL and 6.25 µg/mL, respectively.

In the case of `CC(C)(O/N=C(\C(=O)N[C@@H]1C(=O)N2C(C(=O)O)=C(CSc3nc(-c4ccccc4)cs3)CS[C@H]12)c1csc(N)n1)C(=O)O` [compound 11, disodium 7β-[2-(2-aminothiazol-4-yl)-2-(1-carboxylate-1-methylethoxyimino)acetamido]-3-(4-phenylthiazol-2-yl) thiomethyl-3-cephem-4-carboxylate, reference compound], the MIC is 1.56 µg/mL in [1]; 1.56 µg/mL in assay [2]; 12.5 µg/mL in [3] (Burkholderia cepacia, 23, 16 h); 12.5 µg/mL in [4]; 3.12 µg/mL in assay [5]; < 0.006 µg/mL in assay [6]. The MIC in assay [7] is 3.12 µg/mL; in [8] (setting [22]), 6.25 µg/mL; in assay [9], 1.56 µg/mL; in [10] (read-out: Minimum Inhibitory Concentration (MIC), *E. coli GN5482, lactamase-producing strain, 10^6 CFU/ml), 1.56 µg/mL; in [11] it was 0.78 µg/mL; in [12] (Enterobacter cloacae, 16 h, E. cloacae 963, read-out: Minimum Inhibitory Concentration (MIC)), 6.2 µg/mL. Besides, the MIC in assay [13] (setting [23]) is 3.12 µg/mL; in assay [14], 3.12 µg/mL; in assay [15] it was 0.1 µg/mL; in assay [16], 1.56 µg/mL; in assay [17] (setting [29]) it was > 100 µg/mL; in assay [18] (setting [25]) it was 50 µg/mL. For the same compound, the MIC was > 100 µg/mL in assay [19] (setting [26]) and 12.5 µg/mL in assay [20] (setting [27]).
